# Results reported in patent US20210284668A1, “GOLD (I)-PHOSPHINE 1,2,3-TRIAZOLE DERIVATIVES WITH ANTIBIOTIC PROPERTIES” (Centre National de la Recherche Scientifique, priority 2018, published 2021).
# Several values for one entry are separate records, joined by “and”; a condition that tells them apart may be missing. Equal values may be shown once.
# How the values were obtained:
# E. coli ATCC25922 = experiment: MIC by microdilution, E. coli ATCC25922; format: cell-based, Escherichia coli; settings: E. coli ATCC25922 (wild-type), in duplicate
# Procedure, shortened: (§1)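 MICs determined in duplicate by CLSI broth microdilution (M07-A10) in Mueller-Hinton broth. S. aureus ATCC700699: MecA positive, glycopeptide resistant; S. epidermidis ATCC35984: MecA positive; E. coli ATCC25922: wild-type. Panel spans Gram-positive and Gram-negative strains from wild-type to multi-drug resistant.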
# S. epidermidis ATCC14990 = experiment: MIC by microdilution, S. epidermidis ATCC14990; format: cell-based, Staphylococcus epidermidis; settings: S. epidermidis ATCC14990 (MecA negative, wild-type), in duplicate
# Procedure, shortened: as §1
# S. aureus ATCC25923 = experiment: MIC by microdilution, S. aureus ATCC25923; format: cell-based, Staphylococcus aureus; settings: S. aureus ATCC25923 (MecA negative, wild-type), Mueller-Hinton broth, in duplicate
# Procedure, shortened: (§2)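 Broth microdilution per CLSI document M07-A10, Mueller-Hinton medium, each MIC run in duplicate. Strains include E. coli ATCC25922 (wild-type), S. epidermidis ATCC35984 (MecA positive) and S. aureus ATCC700699 (MecA positive, glycopeptide resistant), within a mixed panel of susceptible and resistant Gram-positive/Gram-negative bacteria.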
# E. faecium AUS0004 = experiment: MIC by microdilution, E. faecium AUS0004; format: cell-based, Enterococcus faecium; settings: E. faecium AUS0004 (VanB positive, glycopeptide resistant), in duplicate
# Procedure, shortened: as §2
# [1] = system: S. epidermidis ST20140436; experiment: MIC by microdilution, S. epidermidis ST20140436; format: cell-based, Staphylococcus epidermidis; settings: S. epidermidis ST20140436 (MecA positive, glycopeptide resistant), in duplicate
# Procedure, shortened: as §2
# S. aureus ST20131365 = experiment: MIC by microdilution, S. aureus ST20131365; format: cell-based, Staphylococcus aureus; settings: S. aureus ST20131365 (MecA positive, glycopeptide resistant), in duplicate
# Procedure, shortened: as §1
# [2] = system: S. epidermidis ST20150446; experiment: MIC by microdilution, S. epidermidis ST20150446; format: cell-based, Staphylococcus epidermidis; settings: S. epidermidis ST20150446 (MecA positive, glycopeptide resistant), in duplicate
# Procedure, shortened: as §2
# [3] = system: panel of Gram-positive and Gram-negative strains; experiment: Antibacterial profile on the selected panel of strains; format: cell-based; settings: summary of Tables 1-12
# Procedure, shortened: as §1
# E. faecalis JH2-2 = experiment: MIC by microdilution, E. faecalis JH2-2; format: cell-based, Enterococcus faecalis; parameters: unit not given here; settings: E. faecalis JH2-2 (wild-type), in duplicate
# Procedure, shortened: as §2
# [4] = system: Clostridium difficile ATCC700057; experiment: MIC by microdilution, Clostridium difficile; format: cell-based; settings: strain ATCC70057 [sic] (Tables 1-2) / ATCC700057 (Tables 3-10), in duplicate
# S. epidermidis ATCC35984 = experiment: MIC by microdilution, S. epidermidis ATCC35984; format: cell-based, Staphylococcus epidermidis; settings: S. epidermidis ATCC35984 (MecA positive), in duplicate
# Procedure, shortened: as §1
# E. faecalis V583 = experiment: MIC by microdilution, E. faecalis V583; format: cell-based, Enterococcus faecalis; settings: E. faecalis V583 (VanB positive, glycopeptide resistant), in duplicate
# Procedure, shortened: as §1
# S. aureus ATCC700699 = experiment: MIC by microdilution, S. aureus ATCC700699; format: cell-based, Staphylococcus aureus; parameters: unit not given here; settings: S. aureus ATCC700699 (MecA positive, glycopeptide resistant), in duplicate
# Procedure, shortened: as §1
# S. aureus ATCC29213 = experiment: MIC by microdilution, S. aureus ATCC29213; format: cell-based, Staphylococcus aureus; settings: S. aureus ATCC29213 (MecA negative, wild-type), Mueller-Hinton broth, in duplicate
# Procedure, shortened: as §2
# E. faecalis UCN41 = experiment: MIC by microdilution, E. faecalis UCN41; format: cell-based, Enterococcus faecalis; parameters: unit not given here; settings: E. faecalis UCN41 (VanA positive, glycopeptide resistant), in duplicate
# Procedure, shortened: as §2
# E. faecium BM4147 = experiment: MIC by microdilution, E. faecium BM4147; format: cell-based, Enterococcus faecium; parameters: unit not given here; settings: E. faecium BM4147 (VanA positive, glycopeptide resistant), in duplicate
# Procedure, shortened: as §2
# E. faecium ATCC19434T = experiment: MIC by microdilution, E. faecium ATCC19434T; format: cell-based, Enterococcus faecium; parameters: unit not given here; settings: E. faecium ATCC19434T (wild-type), in duplicate
# Procedure, shortened: as §2
SMILES,Minimal Inhibitory Concentration (MIC) (E. coli ATCC25922),Minimal Inhibitory Concentration (MIC) (S. epidermidis ATCC14990),Minimal Inhibitory Concentration (MIC) (S. aureus ATCC25923),Minimal Inhibitory Concentration (MIC) (E. faecium AUS0004),Minimal Inhibitory Concentration (MIC) [1],Minimal Inhibitory Concentration (MIC) (S. aureus ST20131365),Minimal Inhibitory Concentration (MIC) [2],antimicrobial / antibacterial activity (in words) [3],Minimal Inhibitory Concentration (MIC) (E. faecalis JH2-2),Minimal Inhibitory Concentration (MIC) [4],Minimal Inhibitory Concentration (MIC) (S. epidermidis ATCC35984),Minimal Inhibitory Concentration (MIC) (E. faecalis V583),Minimal Inhibitory Concentration (MIC) (S. aureus ATCC700699),Minimal Inhibitory Concentration (MIC) (S. aureus ATCC29213),Minimal Inhibitory Concentration (MIC) (E. faecalis UCN41),Minimal Inhibitory Concentration (MIC) (E. faecium BM4147),Minimal Inhibitory Concentration (MIC) (E. faecium ATCC19434T)
CC[P+](CC)(CC)[Au-][c]1nn[nH]c1COC(=O)NC(C(=O)NC)c1ccccc1 (stereo not shown) [TMB8],>8,≤0.06,0.25,2,0.125,0.25 and 0.5,0.125,have antimicrobial activity,1,≤0.06-0.125,≤0.06,2,0.25 and 0.5,0.25,1 and 2,2,1 and 2
CC[P+](CC)(CC)[Au-][c]1nn[nH]c1-c1cccc(C(=O)O)c1 [TMB13],>8,≤0.06,0.125,1 and 2,≤0.06,0.25,≤0.06,have antimicrobial activity,1 and 2,≤0.06,≤0.06,1 and 2,0.25,0.125 and 0.25,1 and 2,2,0.5
CC1(C)S[C@@H]2[C@H](NC(=O)[C@H](NC(=O)OCc3cnnn3Cc3ccccc3)c3ccccc3)C(=O)N2[C@H]1C(=O)O [TMB7],>8,1,1,>8,8,>8,>8,do not show an antibacterial activity,1 and 2,4,>8,2,>8,1,4,>8,8
CC[P+](CC)(CC)[Au-][c]1nn[nH]c1CC(N)C(=O)O (stereo not shown) [TMB37],>8,≤0.06,0.125,0.5,0.125,0.25,0.125,have antimicrobial activity,0.5,≤0.06,≤0.06,0.5,0.25,0.125 and 0.25,0.5,0.5,0.5
CC[P+](CC)(CC)[Au-][c]1nn[nH]c1COC(=O)NC(C(=O)OC(C)(C)C)c1ccccc1 (stereo not shown) [TMB15],>8,≤0.06,0.25 and 0.5,2,0.125,0.25 and 0.5,0.125 and 0.25,have antimicrobial activity,2,0.125 and 0.25,≤0.06,2 and 4,0.5,0.5,2,4,2
CC[P+](CC)(CC)[Au-][c]1nn[nH]c1COC(=O)NC(C(=O)O)c1ccc(O)cc1 (stereo not shown) [TMB26],>8,≤0.06,0.125,0.5,≤0.06,0.125,≤0.06,have antimicrobial activity,0.25,0.125,≤0.06,0.5,0.25,0.125,0.25,0.5,0.25
CC[P+](CC)(CC)[Au-][c]1nn[nH]c1COC(=O)N[C@H](Cc1c[nH]c2ccccc12)C(=O)O [TMB30],>8,≤0.06,0.25,1,0.125,0.25,0.125,have antimicrobial activity,0.5,0.125,≤0.06,0.5,0.25,0.25,0.5,1,0.5
CC[P+](CC)(CC)[Au-][c]1nn[nH]c1CCCO [TMB34],>8,≤0.06,≤0.06,0.125,≤0.06,≤0.06,≤0.06,have antimicrobial activity,0.125,≤0.06,≤0.06,0.125,≤0.06,≤0.06,0.125,0.125,0.125
